Assay results: US20070208040A1, “A2A ADENOSINE RECEPTOR ANTAGONISTS” (priority 2006, published 2007)

Molecular target: A2A adenosine receptor (UniProt P29274)
Test: A2A radioligand binding assay (displacement of 3H-MSX-2)
Parameters: species or system human
Details: displacement of 2 nM 3H-MSX-2 from 15 ug A2A membrane, 23° C., 2 hours
Excerpt: A tritiated adenosine A2A antagonist, 3-(3-hydroxypropyl)-7-methyl-8-(m-methoxystyryl)-1-propargylxanthine, (3H-MSX-2, specific activity: 80 Ci/mmol), was purchased from American Radiolabeled Chemicals, Inc (St. Louis, Mo.). A tritiated adenosine A1 antagonist, 1,3-Dipropyl-8-cyclopentylxanthine ([^3H]DPCPX, specific activity: 120 Ci/mmol) was purchased from Perkin Elmer (Boston, Mass.). A tritiated adenosine A2a antagonist, 4-(2-[7-amino-2-(2-furyl)[1,2,4]triazolo[2,3-a][1,3,5]triazin-5-ylamino]ethyl)phenol ([^3H]ZM241385 specific activity: 27.4 Ci/mmol) was purchased from American Radiolabeled Chemicals, Inc (St. Louis, Mo.). Adenosine Deaminase (ADA) was purchased from Roche Molecular Biochemicals (Nutley, N.J.). GTP was purchased from Sigma. Concentrated stock solution (10 mM) of compounds was dissolved in dimethylsulfoxide (DMSO), stored at −20° C., and diluted in Tris-EDTA buffer (50 mM Tris and 1 mM EDTA, 10 mM MgCl2, pH 7.4) for use in experiments. The final content of dimethylsulfoxide in Tris-EDTA buffer during experiments was not more than 1%. Male Sprague Dawley rats, weighted 250-400 g, 8-10 weeks old, were purchased from Charles River Labs (Wilmington, Mass.).
HEK293 (Human Embryonic Kidney 293) cells stably expressing human A2A adenosine receptor or human A2B adenosine receptor were maintained in DMEM supplemented with 10% fetal bovine serum, 2 mM L-glutamine, 100 IU/ml penicillin, 50 μg/ml streptomycin and 2 μg/ml puromycin. CHO (Chinese Hamster Ovary) cells stably expressing human A1 adenosine receptor or human A3 adenosine receptor were maintained in F12K medium supplemented with 10% fetal bovine serum, 2 mM L-glutamine, 100 IU penicillin, 50 μg streptomycin and 8 μg/ml puromycin. PC12 (rat pheochromocytoma) cells were cultured in F12K medium supplemented with 10% horse serum and 2.5% fetal bovine serum, 2 mM L-glutamine, 100 IU/ml penicillin, and 50 μg/ml streptomycin. All cells were maintained at 37° C. in a humidified 5% CO2/95% air incubator and recultivated 2 times per week.
Cultured cells in 150 mm^2 dishes were washed once with PBS, detached by scrapping, collected with buffer A (10 mM HEPES, 10 mM EDTA, pH 7.4) containing protease inhibitor cocktail. Cells were then homogenized by a handheld homogenizer at a speed of 4.5 for 1 min. The homogenate was centrifuged by a Beckman ultracentrifuge at a speed of 29,000 × g for 15 min. The pellets were resuspended in buffer HE (10 mM HEPES, 1 mM EDTA, pH 7.4, with protease inhibitor cocktail), centrifuged again at 29,000 × g for 15 min. The crude membrane was resuspended using buffer HE, and protein concentration was measured by the method of Lowery with BSA as standard. Similar procedures were used for membrane preparation for fresh rat tissues. All experimental procedures were done at 4° C. Membranes were aliquot and kept at −80° C.
The binding assays utilized 15 ug of A2A membrane (human recombinant A2A membrane, rat striatal membrane, or PC 12 cell membrane) that had been treated with adenosine deaminase and 50 mM Tris-EDTA buffer (pH=7.4) followed by mixing 2 μL of serially diluted DMSO stock solution of the compounds of this invention at concentrations ranging from 10 μM to 0.1 nM or the control received 2 μL of DMSO alone, then the tritiated antagonist 3-(3-hydroxypropyl)-7-methyl-8-(m-methoxystyryl)-1-propargylxanthine (^3H-MSX-2) in Tris-EDTA buffer (50 mM Tris, 1 mM EDTA, 10 mM MgCl2, pH of 7.4) was added to achieve a final concentration of 2 nM. After incubation at 23° C. for 2 hours, the solutions were filtered using a membrane harvester with multiple washing of the membranes (3×). The filter plates were counted in scintillation cocktail affording the amount of displacement ^3H-MSX-2 by the competitive binding compositions of this invention. Radioligand binding data was analyzed using GraphPad Prism version 4.0 (San Diego, Calif.). […]

| SMILES | Ki |
| --- | --- |
| CCn1c(=O)[nH]c2sc(C(=O)NC)c(C)c2c1=O [XV, (3-ethyl-5-methyl-2,4-dioxo(1,3-dihydrothiopheno[2,3-d]pyrimidin-6-yl))-n-methylcarboxamide] | 676 nM |
| C#CCn1c(=O)[nH]c2scc(C)c2c1=O [IX, 5-methyl-3-prop-2-ynyl-1,3-dihydrothiopheno[2,3-d]pyrimidine-2,4-dione] | 365 nM |
| CCCn1c(=O)[nH]c2sc(C(=O)O)c(C)c2c1=O [XLI, 5-methyl-2,4-dioxo-3-propyl-1,3-dihydrothiopheno[2,3-d]pyrimidine-6-carboxylic acid] | 569 nM |
| Cc1c(-c2cocn2)sc2[nH]c(=O)n(CC(C)C)c(=O)c12 [XXIII, 5-methyl-3-(2-methylpropyl)-6-(1,3-oxazol-4-yl)-1,3-dihydrothiopheno[2,3-d]pyrimidine-2,4-dione] | 96 nM |
| CCOC(=O)c1sc2[nH]c(=O)n(C)c(=O)c2c1C [XVII, ethyl 3,5-dimethyl-2,4-dioxo-1,3-dihydrothiopheno[2,3-d]pyrimidine-6-carboxylate] | 715 nM |
| CCn1c(=O)[nH]c2sc(-c3ccc[nH]3)c(C)c2c1=O [XXVII, 3-ethyl-5-methyl-6-pyrrol-2-yl-1,3-dihydrothiopheno[2,3-d]pyrimidine-2,4-dione] | 180 nM |
| CCn1c(=O)[nH]c2sc(-c3nccs3)c(C)c2c1=O [XXXVII, 3-ethyl-5-methyl-6-(1,3-thiazol-2-yl)-1,3-dihydrothiopheno[2,3-d]pyrimidine-2,4-dione] | 167 nM |
| Cc1c(-c2cccs2)sc2[nH]c(=O)n(CC3CC3)c(=O)c12 [XXXV, 3-(cyclopropylmethyl)-5-methyl-6-(2-thienyl)-1,3-dihydrothiopheno[2,3-d]pyrimidine-2,4-dione] | 195 nM |
| CCn1c(=O)[nH]c2scc(-c3ccco3)c2c1=O [VI, 3-ethyl-5-(2-furyl)-1,3-dihydrothiopheno[2,3-d]pyrimidine-2,4-dione] | 137 nM |
| CCn1c(=O)[nH]c2sc(-c3cccnc3OC)c(C)c2c1=O [LV, 3-ethyl-6-(2-methoxy(3-pyridyl))-5-methyl-1,3-dihydrothiopheno[2,3-d]pyrimidine-2,4-dione] | 529 nM |
| C#CCn1c(=O)c2c(C)csc2n(C)c1=O [LII, 1,5-dimethyl-3-prop-2-ynyl-1,3-dihydrothiopheno[2,3-d]pyrimidine-2,4-dione] | 720 nM |
| CCn1c(=O)[nH]c2sc(-c3ncco3)c(C)c2c1=O [V, 3-ethyl-5-methyl-6-(1,3-oxazol-2-yl)-1,3-dihydrothiopheno[2,3-d]pyrimidine-2,4-dione] | 134 nM |
| Cc1c(-c2ncco2)sc2[nH]c(=O)n(CC(C)C)c(=O)c12 [XXIX, 5-methyl-3-(2-methylpropyl)-6-(1,3-oxazol-2-yl)-1,3-dihydrothiopheno[2,3-d]pyrimidine-2,4-dione] | 75 nM |
| CCn1c(=O)[nH]c2sc(-c3ccsc3)c(C)c2c1=O [XII, 3-ethyl-5-methyl-6-(3-thienyl)-1,3-dihydrothiopheno[2,3-d]pyrimidine-2,4-dione] | 559 nM |
| Cc1csc2[nH]c(=O)n(C)c(=O)c12 [XIII, 3,5-dimethyl-1,3-dihydrothiopheno[2,3-d]pyrimidine-2,4-dione] | 648 nM |
| CCn1c(=O)c2c(C)c(-c3cc(C)cs3)sc2n(C)c1=O [XLVII, 3-ethyl-1,5-dimethyl-6-(4-methyl(2-thienyl))-1,3-dihydrothiopheno[2,3-d]pyrimidine-2,4-dione] | 524 nM |
| CCn1c(=O)[nH]c2sc(-c3cc(C)cs3)c(C)c2c1=O [XXXI, 3-ethyl-5-methyl-6-(4-methyl(2-thienyl))-1,3-dihydrothiopheno[2,3-d]pyrimidine-2,4-dione] | 150 nM |
| CCn1c(=O)c2c(C)c(-c3ccccn3)sc2n(C)c1=O [L, 3-ethyl-1,5-dimethyl-6-(2-pyridyl)-1,3-dihydrothiopheno[2,3-d]pyrimidine-2,4-dione] | 485 nM |
| Cc1c(C2=NC[C@@H](C)O2)sc2[nH]c(=O)n(CC(C)C)c(=O)c12 [LVII, 6-((5R)-5-methyl(1,3-oxazolin-2-yl))-5-methyl-3-(2-methylpropyl)-1,3-dihydrothiopheno[2,3-d]pyrimidine-2,4-dione] | 239 nM |
| CCn1c(=O)n(CC(C)C)c(=O)c2c(C)c(-c3ccco3)sc21 [XLIV, 1-ethyl-6-(2-furyl)-5-methyl-3-(2-methylpropyl)-1,3-dihydrothiopheno[2,3-d]pyrimidine-2,4-dione] | 457 nM |
| CNC(=O)c1sc2[nH]c(=O)n(C)c(=O)c2c1C [VIII, (3,5-dimethyl-2,4-dioxo(1,3-dihydrothiopheno[2,3-d]pyrimidin-6-yl))-n-methylcarboxamide] | 274 nM |
| Cc1c(-c2ccco2)sc2[nH]c(=O)n(CC3CC3)c(=O)c12 [XXXVI, 3-(cyclopropylmethyl)-5-methyl-6-(2-furyl)-1,3-dihydrothiopheno[2,3-d]pyrimidine-2,4-dione] | 170 nM |

Further molecules by falling Ki, results first:

| Ki | SMILES |
| --- | --- |
| 780 nM | Cc1csc2[nH]c(=O)n(CC(C)C)c(=O)c12 [XIX, 5-methyl-3-(2-methylpropyl)-1,3-dihydrothiopheno[2,3-d]pyrimidine-2,4-dione] |
| 546 nM | CCn1c(=O)c2c(C)c(-c3ccoc3)sc2n(C)c1=O [XLVI, 3-ethyl-6-(3-furyl)-1,5-dimethyl-1,3-dihydrothiopheno[2,3-d]pyrimidine-2,4-dione] |
| 488 nM | CCn1c(=O)c2c(C)c(-c3ccc[nH]3)sc2n(C)c1=O [XLIX, 3-ethyl-1,5-dimethyl-6-pyrrol-2-yl-1,3-dihydrothiopheno[2,3-d]pyrimidine-2,4-dione] |
| 458 nM | CCn1c(=O)[nH]c2sc3c(c2c1=O)CCCC3 [XI, 3-ethyl-1,3,5,6,7,8-hexahydrobenzo[b]thiopheno[2,3-d]pyrimidine-2,4-dione] |
| 397 nM | CCn1c(=O)[nH]c2scc(C)c2c1=O [X, 3-ethyl-5-methyl-1,3-dihydrothiopheno[2,3-d]pyrimidine-2,4-dione] |
| 304 nM | Cc1c(C2=N[C@@H](C)CO2)sc2c1c(=O)n(CC(C)C)c(=O)n2C [LIII, 6-((4S)-4-methyl(1,3-oxazolin-2-yl))-1,5-dimethyl-3-(2-methylpropyl)-1,3-dihydrothiopheno[2,3-d]pyrimidine-2,4-dione] |
| 199 nM | CCn1c(=O)c2c(C)c(-c3nccs3)sc2n(C)c1=O [XLVIII, 3-ethyl-1,5-dimethyl-6-(1,3-thiazol-2-yl)-1,3-dihydrothiopheno[2,3-d]pyrimidine-2,4-dione] |
| 120 nM | CCn1c(=O)[nH]c2sc(-c3ccccn3)c(C)c2c1=O [XXXVIII, 3-ethyl-5-methyl-6-(2-pyridyl)-1,3-dihydrothiopheno[2,3-d]pyrimidine-2,4-dione] |
| 105 nM | CCn1c(=O)[nH]c2sc(-c3ccco3)c(C)c2c1=O [IV, 3-ethyl-6-(2-furyl)-5-methyl-1,3-dihydrothiopheno[2,3-d]pyrimidine-2,4-dione] |
| 97 nM | CCn1c(=O)[nH]c2sc(-c3cccs3)c(C)c2c1=O [III, 3-ethyl-5-methyl-6-(2-thienyl)-1,3-dihydrothiopheno[2,3-d]pyrimidine-2,4-dione] |
| 48 nM | Cc1c(C2=N[C@@H](C)CO2)sc2[nH]c(=O)n(CC(C)C)c(=O)c12 [LI, 6-((4S)-4-methyl(1,3-oxazolin-2-yl))-5-methyl-3-(2-methylpropyl)-1,3-dihydrothiopheno[2,3-d]pyrimidine-2,4-dione] |
